{
  "source": "paper PMC11331178",
  "about": "(Journal of Advanced Research, 2023)",
  "molecular_target": "T1, TFEB (Homo sapiens, UniProt P19484)",
  "T1 sequence (P19484 1-476 limits assumed)": "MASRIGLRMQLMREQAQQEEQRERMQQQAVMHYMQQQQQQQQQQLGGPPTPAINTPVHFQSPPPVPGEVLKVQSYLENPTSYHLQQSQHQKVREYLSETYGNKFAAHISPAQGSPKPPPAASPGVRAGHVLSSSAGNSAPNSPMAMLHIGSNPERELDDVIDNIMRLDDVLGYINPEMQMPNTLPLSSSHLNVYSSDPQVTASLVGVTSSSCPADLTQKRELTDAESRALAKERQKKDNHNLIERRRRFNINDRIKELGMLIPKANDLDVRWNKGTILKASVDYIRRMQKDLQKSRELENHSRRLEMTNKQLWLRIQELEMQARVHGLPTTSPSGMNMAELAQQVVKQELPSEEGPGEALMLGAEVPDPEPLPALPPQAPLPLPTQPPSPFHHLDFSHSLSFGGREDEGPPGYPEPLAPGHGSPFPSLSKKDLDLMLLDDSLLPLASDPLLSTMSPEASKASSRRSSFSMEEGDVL",
  "assay": "SPR, Biacore S200, CM5 chip",
  "format": "binding",
  "note": "pKd: −log10 of the molar value.",
  "data": [
    {"compound": "C=C[C@]1(C)CC[C@@H](C(=C)C)C[C@H]1C(=C)C", "note": "[β-ELE]", "values": [
      {"measurement": "pKd", "result": 4.08}
    ]}
  ]
}
